Results as given in patent US20080090728A1, “Method for Improving Plant Growth” (BAYER CROPSCIENCE AG, priority 2004, published 2008).

What was measured:
[1] = system: Eucalyptus seedlings (E. globulus); test: Field trial, height of treated Eucalyptus seedlings (growth effect); format: in vivo; details: for Average height (cm): E. globulus seedlings
Excerpt: (§1) A synergistic effect is always present when the growth effect of the combinations according to the invention exceed the total of the activities of the active compounds when applied individually. The expected activity for a given combination of two active compounds can be calculated as follows (cf. Colby, S.R., “Calculating Synergistic and Antagonistic Responses of Herbicide Combinations”, Weeds 15, (1967), 20-22): If • X is the growth effect when applying one compound selected from the class of agonists and antagonists of the nicotinic acetylcholine receptors at an application rate of m g/ha, • Y is the growth effect when applying fertilizer at an application rate of n g/ha and • E is the efficacy when applying the combination of A and B at an application rate of m and n g/ha, then [formula] The efficacy is calculated in %. 0% is an efficacy which corresponds to that of the control. If the actual growth effect exceeds the calculated value, then the activity of the combination is super additive, i.e. a synergistic effect exists. In this case, the efficacy which was actually observed must be greater than the value for the expected efficacy (E) calculated from the abovementioned formula. The trial was established using a Latin square design (4 treatments with 4 replications each) with 49 ligneous trees per plot for a total of 784 trees in the trial. Trees: Eucalyptus seedlings (E. globulus) The four treatments used were 1) control (nil treatment) 2) fertilizer only 3) insecticide (i.e. imidacloprid) only 4) insecticide (i.e. imidacloprid) plus fertilizer Bonitation of insect infestation and measurement of the height of the treated trees was done 7 months and 12 months after the trial has been started (start of trial: August 2003, bonitations: March 2004 and August 2004) All results are statistically evaluated having a significance level of 5% . Besides the mean value comparison the Fisher's PLSD test has been applied.

insect infestation = test: Field trial, bonitation of insect infestation (defoliation by insect damage) on Eucalyptus seedlings; format: in vivo
Excerpt: as §1

[2] = Bonitation August 2004, 12 months after start of trial
[3] = Bonitation March 2004, 7 months after start of trial

Structure (SMILES): O=[N+]([O-])NC1=NCCN1Cc1ccc(Cl)nc1 [imidacloprid only, Imidacloprid]
- Height of tree (% of control) [1, 2]: 104 % of control
- Average height (cm) [1, 2]: 125 cm
- Height of tree (% of control) [1, 3]: 115 % of control
- Average height (cm) [1, 3]: 86 cm
- Average defoliation by insect damage (%) (insect infestation; [2]): 60%
- Efficacy according to Abbott (%) (insect infestation; [2]): 40%
- Average defoliation by insect damage (%) (insect infestation; [3]): 18%
- Efficacy according to Abbott (%) (insect infestation; [3]): 71%
